The target of experiment [1] is GTPase KRas [G12D] (Homo sapiens, UniProt P01116, G12D). In words: TR-FRET Assay. The protocol:
Compounds of interest were prepared in a dose-response titration in DMSO, and 80 nL were added via Labcyte Echo to each well of a 384-well plate (Perkin Elmer 6008280). The His-tagged KRAS G12D protein (Amgen) was diluted to 20 nM in Assay Buffer (20 mM HEPES, pH 7.4, 10 mM MgCl2, 50 mM NaCl, 0.1% BSA, 0.01% Tween-20, 10 μM GDP) and 2 μL was added to the appropriate wells of the 384-well plate. The plate was incubated for 30 minutes at room temperature. Biotinylated KRPep-2d substrate (Amgen) was diluted to 20 nM in Assay Buffer and 2 μL was added to all wells and incubated for 1 hour at room temperature. Detection Reagent (0.4 nM LANCE Eu-W1024 Anti-6×His (Perkin Elmer AD0401), 5 nM streptavidin-d2 (Cisbio 610SADLA)) was prepared in Assay Buffer, then 4 μL was added to the plate and incubated for 1 hour at room temperature. Plates were read using PerkinElmer EnVision (ex: 320 nm, em1: 665 nm, em2: 615 nm) and em1/em2 data was used to generate curve fits using a 4-parameter logistic model to calculate IC50 values.

For experiment [2], the target named is GTPase KRas [G12D,C118A] (Homo sapiens, UniProt P01116, C118A/G12D). Put plainly: Coupled Nucleotide Exchange Assay. On the procedure:
Following compound pre-incubation, purified SOS protein (aa 564-1049) and GTP (Roche 10106399001) were added to the assay wells and incubated for an additional 30 min. To determine the extent of inhibition of SOS-mediated nucleotide exchange, purified GST-tagged cRAF (aa 1-149), nickel chelate AlphaLISA acceptor beads (PerkinElmer AL108R), and AlphaScreen glutathione donor beads (PerkinElmer 6765302) were added to the assay wells and incubated for 10 minutes. The assay plates were then read on a PerkinElmer EnVision Multilabel Reader, using AlphaScreen technology, and data were analyzed using a 4-parameter logistic model to calculate IC50 values.

Chain of GTPase KRas [G12D,C118A] (P01116 whole entry G12D/C118A, looked up, the tested form may be a part): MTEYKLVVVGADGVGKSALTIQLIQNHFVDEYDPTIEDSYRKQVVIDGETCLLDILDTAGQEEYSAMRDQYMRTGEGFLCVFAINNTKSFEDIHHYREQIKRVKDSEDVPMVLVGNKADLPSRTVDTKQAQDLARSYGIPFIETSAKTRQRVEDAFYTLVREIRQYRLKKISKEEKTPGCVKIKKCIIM
Chain of GTPase KRas [G12D] (P01116 whole entry G12D): as the sequence (P01116 whole entry G12D/C118A, looked up, the tested form may be a part) above, with A118C counted along it

In general, IC50 refers to the concentration at which inhibition is half-maximal. Low readings indicate greater potency in that assay, high ones weaker potency in that assay. Turning to `Cc1cc2[nH]ncc2c2c1CCCOC(=O)N1CC[C@@H]3CCN(C[C@@H]31)c1nc(OC[C@@]34CCCN3C[C@H](F)C4)nc3c(F)c-2ncc13` (mixture of isomers) [US20240294551, Example 75], the results for the half-maximal inhibitory concentration (IC50) in experiment [1] and in experiment [2] were 20 nM and 13 nM, respectively.
In the same order, the values of `Cc1cc2[nH]ncc2c2c1CCCOC(=O)O[C@@H]1COCCN(C1)c1nc(OC[C@@]34CCCN3C[C@H](F)C4)nc3c(F)c-2c(F)cc13` [US20240294551, Example 102] are 3 nM and 2 nM.
In the same order, the values of `Fc1c2ncc3c(nc(OC[C@@]45CCCN4C[C@H](F)C5)nc13)N1CCC[C@@H](CSCCCCc3c(Cl)cc4[nH]ncc4c3-2)C1` [US20240294551, Example 143] are 3 nM and 2 nM.
Turning to `Fc1c2ncc3c(nc(OC[C@@]45CCCN4C[C@H](F)C5)nc13)N1CCC[C@H](C1)c1coc(n1)CCCc1c(Cl)cc3[nH]ncc3c1-2` [US20240294551, Example 157], the values for the IC50 in experiment [1] and in experiment [2] were 2 nM and 1 nM, respectively.
In the same order, the values of `Cc1cc2[nH]ncc2c2c1CCCOC(=O)O[C@@H]1COCCN(C1)c1nc(OC[C@@]34CCCN3C[C@H](F)C4)nc3c(F)c-2ccc13` [US20240294551, Example 192] are 4 nM and 2 nM.
For `CN(C)CC1(COc2nc3c4cnc(c(F)c4n2)-c2c(c(Cl)cc4[nH]ncc24)CCCOC(=O)O[C@@H]2COCCN3C2)CC1` [US20240294551, Example 195] the same measures were 4 nM and 2 nM.
For the compound `Fc1c2ncc3c(nc(OC[C@@]45CCCN4C[C@H](F)C5)nc13)N1CCOC[C@H](C1)c1noc(n1)CCCc1c(Cl)cc3[nH]ncc3c1-2` [US20240294551, Example 381], the values for the IC50 in experiment [1] and in experiment [2] were 5 nM and 1 nM, respectively.
In the same order, the values of `O[C@@H]1CCOCCc2c(Cl)cc3[nH]ncc3c2-c2ncc3c(nc(OC[C@@]45CCCN4C[C@H](F)C5)nc3c2F)N2CCC[C@@H]1C2` [US20240294551, Example 404] are 10 nM and 6 nM.
